From patent US4304833A, “Photographic products and processes employing triarylmethane compounds” (Polaroid Corporation, priority 1980, dated 1981)

Tests used:
Type in all cases: physicochemical
[1] = transmission densities of image-receiving components before and after bleaching with aqueous 1 N KOH; conditions: for Transmission density After Bleaching B / Transmission density After Bleaching G / Transmission density After Bleaching R: 1 N KOH
Excerpt: (§1) Using appropriate solvents, samples of the dye compounds prepared in Examples 12, 13, 24, 26 and 39 were incorporated into the image-receiving layer 3 of image-receiving components comprising the structure set forth below by mixing a solution of each compound with a solution of the graft copolymer and coating this mixture on top of the timing layer to complete each of the image-receiving components.
A transparent 4 mil polyethylene terephthalate film base coated with, in succession:
1. as a polymeric acid layer, a mixture of about 9 parts of a partial butyl ester of polyethylene/maleic anhydride copolymer and 1 part of polyvinyl butyral coated at a coverage of about 2,500 mgs./ft.^2 ;
2. a timing layer containing a 14:1 ratio of a 60-30-4-6 tetrapolymer of butylacrylate, diacetone acrylamide, styrene and methacrylic acid and polyvinyl alcohol at a coverage of 500 mgs./ft.^2 ;
3. a graft copolymer of 4-vinylpyridine and vinylbenzyltrimethylammoniumchloride grafted on hydroxyethyl cellulose in a weight ratio of 2.2/1/2.2, respectively, coated at a coverage of 300 mgs./ft.^2 to provide an image-receiving layer and containing the selected dye compound at a coverage of 22 mgs./ft.^2.
Each of the image-receiving components containing the respective dye compounds were placed on a piece of gelatin coated Mylar, and the transmission densities for red (R), green (G) and blue (B) were recorded on a transmission densitometer. Then several drops of aqueous 1 N KOH were added to each gelatin sheet, and the image-receiving components were lightly pressed against the gelatin sheets to "bleach" the dye compounds. […]

[2] = decolorization of methanol solution added to aqueous 1 N KOH
[3] = decolorization of solution with aqueous 1N sodium hydroxide, then acidification; conditions: for color after decolorization with 1N NaOH and lowering to pH 1: methanol solution, aqueous hydrochloric acid to pH 1
Protocol: Also, samples of the compounds prepared in Examples 24, 26 and 39 above were dissolved in a small amount of methanol, and aqueous 1N sodium hydroxide was added to each solution to decolorize the compound.

[4] = bleaching rate (T 1/2) at pH=12 in buffer, visible spectrometer; conditions: for Wavelength (λmax-nm): pH=12 buffer; for T 1/2 (pH = 12): pH=12 buffer (aqueous), at λmax given
Protocol: The "bleaching" rates for the compounds of Examples 21, 23, 24, 39 and 41 were determined at pH=12 in terms of T 1/2. By T 1/2 is meant the time measured for one-half of the colored compound to decolorize. In making these determinations, a cell containing about 3 ml of pH=12 buffer (aqueous) was placed in a visible spectrometer. A sample of each compound was dissolved in methanol, and a small amount (less than 0.1 cc) of each solution was injected into the buffer. The optical densities were then recorded at a selected wavelength value to determine T 1/2.

[5] = bleaching of TLC spot treated with 1 N NaOH
Protocol: (c) β-(methylsulfonyl)ethylchloroformate (196 mg) in 8 ml of toluene was added dropwise over 20 minutes to a refluxing solution of 317.3 mg of the compound prepared in step (b) in 15 ml toluene. The yellow mixture was allowed to stir under reflux for an additional hour after addition was complete. The reaction mixture was a deep yellow. […] The yellow spot representing the title compound when treated with 1 N NaOH produced a magenta color which bleached in approximately 5 seconds. The solvent was removed from the remaining reaction mixture under vacuum to give a yellow solid. Preparative TLC with 150 mg of solid in 4 ml tetrahydrofuran using 10% methanol/chloroform gave a yellow band which was separated and washed with acetone to yield approximately 5 mg of the title compound.

[6] = absorption measured in ethanol
Protocol: (c) To a stirred slurry of the phthalol acyl derivative obtained in step b (7.4 g; 0.0155 M), sodium bicarbonate (6.51 g; 0.078 M) and water (200 ml) was added dropwise, a solution of 4.44 g (0.018 M) iodine in 175 ml methylene chloride. After a total of 20 minutes of stirring at room temperature, the aqueous layer was separated and neutralized by adding it to one liter of water containing 15 ml concentrated hydrochloric acid. The aqueous fraction was extracted with methylene, chloride, the organic layer was dried over sodium sulfate and the solvent was removed in vacuo. The dark orange residue was purified via medium pressure column chromatography (silica gel) methanol-methylene chloride; methanol content varied from 0.5-2%). The title compound was isolated as an orange glass. (λmax 424 nm, Epsilon 22,500 as measured in ethanol)

[7] = bleaching of dye in image-receiving layer film with aqueous 1 N NaOH; conditions: dye in image-receiving layer 3
Excerpt: as §1

[8] = decolorization half-life of acetone solution in pH=12 buffer
Protocol: A sample of an acetone solution of the purified dye compound was added to fresh pH=12 buffer and the first half-life (T 1/2) and the second half-life (T 1/2) were measured giving the following results wherein OD refers to optical density. By T 1/2 is meant the time measured for one-half of said colored compound to decolorize.
The λmax of the pure title compound was 560 nm as measured in acetone--pH 12 buffer, and the T 1/2 values were measured at this wavelength.

[9] = addition of aqueous base (1 N NaOH) to methanol and acetone solutions
Excerpt: The title compound gave yellow solutions in methanol and acetone.

[10] = 22 mgs./ft.^2, coating stored for over 3 months
[11] = coating stored for over 3 months, bleaching time about 3 minutes
[12] = 22 mgs./ft.^2, after 15 to 60 seconds
[13] = Experiment 1, pH=12 buffer, 560 nm
[14] = Experiment 2, pH=12 buffer, 560 nm

Structure (SMILES)	Wavelength (λmax-nm) [4]	T 1/2 (pH = 12) [4]	Transmission density Before Bleaching B ([1]; 22 mgs./ft.^2)	Transmission density Before Bleaching G ([1]; 22 mgs./ft.^2)	Transmission density Before Bleaching R ([1]; 22 mgs./ft.^2)	Transmission density After Bleaching B [1, 12]	Transmission density After Bleaching G [1, 12]	Transmission density After Bleaching R [1, 12]	also measured
CN(C(=O)OCCS(C)(=O)=O)S(=O)(=O)c1ccccc1C(=C1C=C(C(O)(C(F)(F)F)C(F)(F)F)C(=O)c2ccccc21)c1cc2c3c(c1)CCCN3CCC2 [Example 26]									Transmission density Before Bleaching B [1, 10]: .05; Transmission density Before Bleaching G [1, 10]: .06; Transmission density Before Bleaching R [1, 10]: .19; Transmission density After Bleaching B [1, 11]: .02; Transmission density After Bleaching G [1, 11]: .00; Transmission density After Bleaching R [1, 11]: .02; decolorization (in words) [2]: decolorized substantially instantaneously; color after decolorization with 1N NaOH and lowering to pH 1 [3]: remained colorless even at pH 1
COC1=CC(=C(c2cc(OC)c(O)c(OC)c2)c2ccccc2S(=O)(=O)N(C)C(C)=O)C=C(OC)C1=O [Example 23]	640 nm	158 sec.							
CC(=O)N(C)S(=O)(=O)c1ccccc1C(=C1C=C(C(O)(C(F)(F)F)C(F)(F)F)C(=O)c2ccccc21)c1cc2c3c(c1)CCCN3CCC2 [Example 9]									decolorization time [2]: approximately 5 seconds
COC1=CC(=C(c2cc3c4c(c2)CCCN4CCC3)c2ccccc2S(=O)(=O)N(C)C(=O)OCCS(C)(=O)=O)C=C(OC)C1=O [Example 13]			.09	.32	.21	.00	.01	.01	
CN(Cc1ccccc1C(=C1C=CC(=O)C=C1)c1ccc(O)cc1)C(=O)OCCS(C)(=O)=O [Example 44]									time to bleach of magenta color [5]: approximately 5 seconds; color after acidifying and again treating with aqueous 1N NaOH ([3]; after bleaching in 1N NaOH): remained colorless; time to complete bleaching ([3]; aqueous 1N NaOH): ≤ 5 s
CC1=CC(=C(c2cc(C)c(O)c(C)c2)c2ccccc2COC(=O)COCC(=O)O)C=C(C)C1=O [Example 42]									λmax [6]: 424 nm; Epsilon ([6]; at λmax, in M-1 cm-1 (unit assumed)): 22,500
COCC(=O)OCc1ccccc1C(=C1C=C(OC)C(=O)C(OC)=C1)c1cc(OC)c(O)c(OC)c1 [Example 39]	640 nm	44 sec.	.59	.03	.01	.01	.00	.00	color after decolorization with 1N NaOH and lowering to pH 1 [3]: remained colorless even at pH 1
COC1=CC(=C(c2ccc(N3CCOCC3)cc2)c2ccccc2S(=O)(=O)N(C)C(=O)OCCS(C)(=O)=O)C=C(OC)C1=O [Example 12]			.45	.31	.00	.00	.01	.02	
CN(C(=O)OCCS(C)(=O)=O)C(=O)c1ccccc1C(=C1C=CC(=O)C=C1)c1ccc(O)cc1 [Example 45]									bleaching of film with aqueous 1 N NaOH [7]: quickly bleached; 1st T 1/2 [8, 13]: 10.0 s; 2nd T 1/2 [8, 13]: 8.5 s; Final OD [8, 13]: 0.02; OD at 1.5 sec. [8, 13]: 2.00; 1st T 1/2 [8, 14]: 9.5 s; 2nd T 1/2 [8, 14]: 8.5 s; Final OD [8, 14]: 0.01; Initial OD (extrapolated) [8, 14]: 1.15; OD at 3.0 sec. [8, 14]: 0.90; λmax ([8]; acetone--pH 12 buffer): 560 nm; bleaching on addition of aqueous base [9]: rapidly and irreversibly bleached to colorless
CC1=CC(=C(c2cc(C)c(O)c(C)c2)c2ccccc2S(=O)(=O)N(C)C(=O)OCCS(C)(=O)=O)C=C(C)C1=O [Example 24]	590 nm	2 sec.	.40	.00	.00	.00	.00	.01	color after decolorization with 1N NaOH and lowering to pH 1 [3]: remained colorless even at pH 1
COC1=CC(=C(c2cc(OC)c(O)c(OC)c2)c2ccccc2S(=O)(=O)N(C)C(=O)OCCS(C)(=O)=O)C=C(OC)C1=O [Example 21]	640 nm	2 sec.							
COC1=CC(=C(c2cc(OC)c(O)c(OC)c2)c2ccccc2COC(=O)COc2ccccc2)C=C(OC)C1=O [Example 41]	640 nm	18 sec.							
